Source: patent publication US20240165165A1, “PHARMACEUTICAL COMPOSITIONS AND THEIR METHODS OF USE” (The Trustees of Indiana University, priority 2021, published 2024)

Key:
[1] = system: EO771 cells in the inside of the skull; assay: Skull diffusion assay, MTT-based viability; format: cell-based, mouse; conditions: agent in the outside of the skull
Method: (§1) Skull diffusion assay. The usage of human breast cancer tissues was approved by the Indiana University Institutional Review Board, and informed consent for research use was obtained from all patients. The experiment was performed following Indiana University's human research protection program policies. A breast cancer tissue (— 1 g; ER/PR+, HER2+), received from Simon Cancer Center Tissue Procurement Core, was manually fragmented with a scalpel into small pieces. Mouse skulls were isolated and rinsed with PBS. They were placed in a 24-well plate with the head top facing the well surface and tumor cells or breast cancer tissue fragments were grown. The well was filled with the control medium or osteocyte-derived CM. Fluphenazine (Sigma-Aldrich), a dopamine receptor antagonist that suppresses the growth of mammary tumor cells, was employed as a positive control to suppress tumor growth.

[2] = system: human breast cancer fragments in the inside of the skull; assay: Skull diffusion assay, tissue fragments; format: cell-based; conditions: agent in the outside of the skull
Method: as §1

[3] = system: 4T1.2 cells; assay: Western blot of proteins in treated tumor cells; format: cell-based, mouse; conditions: for tumor-promoting genes (Lrp5, MMP9, Runx2, TGFβ, Snail) in 4T1.2 cells: Western blot
Method: (§2) Western blot analysis and protein array analysis. Western blot analysis was conducted using the procedure previously described. Antibodies against Lrp5, Runx2, Snail, TGFβ, sclerostin, Calr, p-eIF2α, eIF2α (Cell Signaling, Danvers, MA, USA), LIF, Trail (Novus Biologicals, Centennial, CO, USA), MMP9, NFATc1, cathepsin K (Santa Cruz Biotechnology, Dallas, TX, USA), p53, CXCL2, Ppib (Invitrogen, Carlsbad, CA, USA), Hsp90ab1 (Abcam, Cambridge, UK), and β-actin (Sigma, Saint Louis, MO, USA) were used. A proteome profiler mouse XL cytokine array kit (R&D Systems, Minneapolis, MN, USA) was also employed, and the expression of 111 cytokines and chemokines in MSC-derived CM was determined.

[4] = system: 4T1.2 mammary tumor cells; assay: MTT viability assay; format: cell-based, mouse
Description: (§3) In vitro assays. Cellular viability was examined using an MTT assay (Invitrogen, Carlsbad, CA, USA) with the procedure previously described, as well as an EdU assay with a fluorescence-based cell proliferation kit (Thermo-Fisher, Waltham, MA, USA). The recombinant proteins employed included Filamin A, Pkm, Pdia3, Tpm4, Anxa2, Eef1a1, Cts1, Nme2, Dcn, Calr, Aldoa, Calm1, Tpm3, Ppib, Myh9, Ywhae, Hspa5, Hsp90aa1 (MBS962910, MBS8249600, MBS2010131, MBS145304, MBS2009095, MBS2033168, MBS143355, MBS145412, MBS2557309, MBS2009125, MBS8248528, MBS2018713, MBS144696, MBS2009092, MBS717396, MBS143242, MBS806904, MBS142709; MyBioSource, San Diego, CA, USA), Actin Gamma 1, Actn4, Hspa8, Vimentin (H00000071-P01, H00000081-P01, NBP1-30278, NBP2-35139; Novus, Littleton, CO, USA), and Hsp90ab1 (OPCA05157; Aviva system biology, San Diego, CA, USA). A TRANSWELL® chamber assay was conducted to detect invasive cellular motility, and a wound-healing scratch assay was utilized to evaluate 2-dimensional migratory behavior. The overexpression of Akt, Lrp5, β-catenin, Snail, Calr, and Ppib was conducted by transfecting plasmids (#10841, #115907, #31785, #31697, #51161, #36123; Addgene, Cambridge, MA, USA). […]

[5] = system: 4T1.2 mammary tumor cells; assay: Scratch-based migration assay; format: cell-based, mouse
Method: Two-dimensional motility assay. A wound-healing scratch motility assay was performed to evaluate 2-dimensional cell motility. Approximately 4×10^5 cells were seeded in 12-well plates. After cell attachment, a plastic pipette tip was used to scratch a gap on the cell layer. Floating cells were removed, and CM was added. Images of the cell-free scratch zone were obtained via an inverted microscope at 0 h, and the areas newly occupied with cells were determined 24-48 h after scratching. The areas were quantified with IMAGE J (National Institutes of Health, Bethesda, MD, USA).
In vitro assays. Cellular viability was examined using an MTT assay (Invitrogen, Carlsbad, CA, USA) with the procedure previously described, as well as an EdU assay with a fluorescence-based cell proliferation kit (Thermo-Fisher, Waltham, MA, USA). […]

[6] = Estimation of the diffusion coefficient through the skull; format: physicochemical, mouse
Description: Estimation of the diffusion coefficient through the skull. Suppose that the two aqueous reservoirs are separated by a skull and the solute (albumin) in the first reservoir with the volume V1 is transferred to the second reservoirs with the volume V2. When the volume of the skull is negligible, the change in the solute in the first reservoir is approximated, using the quasi-steady-state flux, N according to Eq. (1) and Eq. (2):
Where t=time, and c 1 (t) and c 2 (t)=concentrations in the first and second reservoirs, respectively, A=skull surface area, D=diffusion coefficient through the skull, and L=skull thickness. Since the decrease in the first reservoir is equivalent to the gain in the second reservoir, Eq. (3) is arrived at:
If the initial concentrations are c1(t=0)=c0 and c2 (t=0)=0, the concentration c1 is predicted as a function of time according to Eq. (4):
The diffusion coefficient of albumin in the skull was estimated as 3.30×10^−8 cm^2/s from the slope (0.7157) of the best-fit line of Eq. (4) in FIG. 36B. Of note, V1=265 μl, V2=65 μl, c0=10 μg/μ1, A=188 mm^2, and L=60 μm.

[7] = system: EO771 cells; assay: Western blot of proteins in treated tumor cells; format: cell-based, mouse
Method: Western blot analysis and mass spectrometry. Western blot analysis was conducted using known procedures. Antibodies were used against ANXA1, β-catenin, caspase 3, Lrp5, Lrp6, Runx2, Sclerostin, Snail, TGFβ, NFATc1, cathepsin K (Cell Signaling, Danvers, MA, USA), DMP1, ANXA6, CXCL5 (Abcam, Cambridge, MA, USA), M-CSF, MMP9, OPN, TPM4 (Santa Cruz, Dallas, TX, USA), WISP1 (R&D systems, Minneapolis, MN, USA), β-actin (Sigma, Saint Louis, MO, USA), LIMA1, Trail (Novus, Centennial, CO, USA), p53 and CXCL1 (Invitrogen, Carlsbad, California, USA), and DSP (ProteinTech, Rosemont, IL, USA). The expression levels of Sclerostin and Lrp5 in CM were detected by ELISA (My BioSource, San Diego, CA, USA). Proteins from A5 osteocyte CM, Y4 osteocyte CM, and osteoclast control CM (RAW264.7 cells) were analyzed by the HF Hybrid Quadrupole Orbitrap mass spectrometry. Among 549 identified proteins, 49 proteins presented higher expression levels in A5 CM than Y4 CM and control CM. […]
Western blot analysis and protein array analysis. […] A proteome profiler mouse XL cytokine array kit (R&D Systems, Minneapolis, MN, USA) was also employed, and the expression of 111 cytokines and chemokines in MSC-derived CM was determined. […]

[8] = system: phosphorylated Akt in MSCs; assay: Western blot of phosphorylated Akt; format: cell-based, mouse
Method: as §2

[9] = system: 4T1.2 mammary tumor cells; assay: EdU proliferation assay; format: cell-based, mouse
Method: EdU assay. Approximately 2,000 cells were seeded in 96-well plates on day 1. CM was added on day 2 and cellular proliferation was examined using a fluorescence-based cell proliferation kit (CLICK-IT™ EDU ALEXA FLUOR™ 488 Imaging Kit; Thermo-Fisher, Waltham, MA, USA) on day 4. After fluorescent labeling, the number of fluorescently labeled cells was counted and the ratio to the total number of cells was determined.
as §3, with “USA).” for “USA). A TRANSWELL® chamber assay was conducted to detect invasive cellular motility, and a wound-healing scratch assay was utilized to evaluate 2-dimensional migratory behavior. The overexpression of Akt, Lrp5, β-catenin, Snail, Calr, and Ppib was conducted by transfecting plasmids (#10841, #115907, #31785, #31697, #51161, #36123; Addgene, Cambridge, MA, USA).”

[10] = system: 4T1.2 mammary tumor cells; assay: TRANSWELL invasion assay; format: cell-based, mouse
Description: as §3

[11] = system: EO771 mammary tumor cells in the lung of C57BL/6 mice; assay: In vivo extravasation assay; set-up: species or system mouse; conditions: co-injection into tail vein, 48 h
Method: To evaluate the effects of CMs for tumor invasion, the in vivo extravasation assay was conducted. C57BL/6 female mice (5 mice per group) received an injection of 50 μl of fluorescently labeled EO771 cells (1.0×10^6 cells) into the lateral tail veins. Fluorescently labeled EO771 cells were prepared by culturing them with a green fluorescent dye (#4705, Sartorius, Gottingen, Germany) for 20 min at 37° C. Cells were then centrifuged with 1000 rpm for 5 min for harvesting the pellet. The pellet was re-suspended in PBS (placebo group) or osteocyte-derived CM (A5 CM group). Mice will be sacrificed after 48 h for histologically identifying extravascular tumor cells in the lung.

In the case of `OCCN1CCN(CCCN2c3ccccc3Sc3ccc(C(F)(F)F)cc32)CC1` [Fluphenazine], the “viability of EO771 tumor cells in the inside of the skull” value [1] is reported as “significantly decreased” and the “size of human breast cancer fragments in the inside of the skull” value [2] is reported as “significantly shrunk”.
For “Hsp90ab1: recombinant heat shock protein 90 alpha family class B member 1”, the “tumor-promoting genes (Lrp5, MMP9, Runx2, TGFβ, Snail) in 4T1.2 cells” value (shortened to “tumor-promoting genes”) [3] was “downregulated”, the “MTT-based viability of 4T1.2 cells” value [4] was “Significant reduction” and the “scratch-based migration of 4T1.2 cells” value [5] was “reduced”.
In the case of “albumin: bovine serum albumin, solute for skull diffusion”, the “diffusion coefficient across the skull relative to aqueous solution, fold smaller” value [6] is reported as “approximately 20 fold” and the “diffusion coefficient across the skull” value ([6]; murine skull, estimated from slope of Eq. (4)) is reported as 3.30×10^−8 cm^2/s.
With TGFβ the “tumor-promoting/tumorigenic proteins (Lrp5, MMP9, Runx2, TGFβ, Snail, IL1β etc.) in EO771 cells” value [7] was “increased”.
In the case of Hsp90aa1: Hsp90aa1 recombinant protein, the “tumor-promoting genes” value [3] is reported as “did not alter”.
With `Oc1cc2c(cc1O)C(Cc1cccc3ccccc13)NCC2` (stereo not shown) [YS49] the “phosphorylated Akt in MSCs” value [8] was “elevated”.
For “Ppib: recombinant peptidylprolyl isomerase B”, the “EdU-based proliferation of 4T1.2 cells” value [9] was “significantly inhibited”, the “TRANSWELL invasion of 4T1.2 cells” value [10] was “significantly inhibited” and the “phosphorylation level of eIF2α in 4T1.2 cells” value [3] was “elevated”. The “tumor-promoting genes” value [3] was “suppressed” and the “MTT-based viability of 4T1.2 cells” value [4] was “Significant reduction”.
In the case of `COc1cccc(-c2cc(NCc3ccc4c(c3)OCO4)nc(N)n2)c1` [BML284], the “number of EO771 tumor cells in the lung” value [11] is reported as “Reduction”.
